# Assay results reported in ChEMBL document CHEMBL4196200 (J Med Chem, 2018).
# Active and inactive are the calls of the source. The rule behind the calls is not given here.
# Assays:
# Oxytocin receptor [1] = target: T1, Oxytocin receptor (Mus musculus, UniProt P97926); assay: Agonist activity at mouse OTR receptor expressed in HEK293FT cells assessed as stimulation of calcium release by Aequorin based assay; assay type: functional, cell-based
# T1 sequence (P97926 whole entry): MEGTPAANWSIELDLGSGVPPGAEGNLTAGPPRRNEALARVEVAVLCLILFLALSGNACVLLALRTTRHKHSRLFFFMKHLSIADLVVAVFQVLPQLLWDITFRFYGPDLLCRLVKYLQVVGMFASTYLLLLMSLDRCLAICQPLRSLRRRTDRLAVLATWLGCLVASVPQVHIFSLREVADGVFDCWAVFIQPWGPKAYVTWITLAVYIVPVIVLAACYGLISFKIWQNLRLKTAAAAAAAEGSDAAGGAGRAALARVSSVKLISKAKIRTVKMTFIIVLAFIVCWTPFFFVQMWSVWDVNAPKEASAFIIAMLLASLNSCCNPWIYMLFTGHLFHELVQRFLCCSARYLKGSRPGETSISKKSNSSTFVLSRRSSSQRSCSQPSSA
# Vasopressin V2 receptor [2] = target: T2, Vasopressin V2 receptor (Homo sapiens, UniProt P30518); assay: Displacement of DY647 from SNAP-tagged V2 receptor (unknown origin) expressed in HEK293 cells by TR-FRET assay; assay type: cell-based
# T2 sequence (P30518 whole entry): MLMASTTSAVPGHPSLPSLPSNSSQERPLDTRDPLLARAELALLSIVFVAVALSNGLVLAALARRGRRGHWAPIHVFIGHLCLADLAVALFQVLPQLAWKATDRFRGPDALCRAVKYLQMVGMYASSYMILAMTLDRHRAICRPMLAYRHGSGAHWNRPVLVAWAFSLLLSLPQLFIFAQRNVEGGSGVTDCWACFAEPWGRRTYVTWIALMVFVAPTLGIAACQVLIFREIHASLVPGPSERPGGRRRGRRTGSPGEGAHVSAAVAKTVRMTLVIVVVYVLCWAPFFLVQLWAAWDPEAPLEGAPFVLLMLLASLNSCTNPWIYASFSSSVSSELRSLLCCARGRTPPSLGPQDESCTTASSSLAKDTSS
# Vasopressin V1a receptor [3] = target: T3, Vasopressin V1a receptor (Homo sapiens, UniProt P37288)
# T3 sequence (P37288 whole entry): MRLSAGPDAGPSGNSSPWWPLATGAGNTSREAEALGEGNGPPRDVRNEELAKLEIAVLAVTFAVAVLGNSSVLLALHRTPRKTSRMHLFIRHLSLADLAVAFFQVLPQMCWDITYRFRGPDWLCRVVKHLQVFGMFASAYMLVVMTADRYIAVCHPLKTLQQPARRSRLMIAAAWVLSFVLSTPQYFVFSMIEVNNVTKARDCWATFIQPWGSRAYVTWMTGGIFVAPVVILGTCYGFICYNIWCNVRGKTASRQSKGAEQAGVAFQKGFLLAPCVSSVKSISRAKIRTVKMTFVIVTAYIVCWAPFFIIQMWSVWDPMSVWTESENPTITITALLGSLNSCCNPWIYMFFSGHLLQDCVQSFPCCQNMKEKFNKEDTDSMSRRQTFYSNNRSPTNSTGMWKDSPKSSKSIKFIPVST
# Description: Agonist activity at human V1a receptor expressed in HEK293FT cells assessed as stimulation of calcium release by Aequorin based assay
# [4] = target: T4, Oxytocin receptor (Homo sapiens) (UniProt P30559); assay: Antagonist activity at human OTR expressed in HEK cells assessed as inhibition of OT-induced intracellular calcium flux at 1 uM incubated for 45 mins by Indo1-AM dye based fluorescence assay relative to OT; assay type: functional, cell-based
# T4 sequence (whole entry): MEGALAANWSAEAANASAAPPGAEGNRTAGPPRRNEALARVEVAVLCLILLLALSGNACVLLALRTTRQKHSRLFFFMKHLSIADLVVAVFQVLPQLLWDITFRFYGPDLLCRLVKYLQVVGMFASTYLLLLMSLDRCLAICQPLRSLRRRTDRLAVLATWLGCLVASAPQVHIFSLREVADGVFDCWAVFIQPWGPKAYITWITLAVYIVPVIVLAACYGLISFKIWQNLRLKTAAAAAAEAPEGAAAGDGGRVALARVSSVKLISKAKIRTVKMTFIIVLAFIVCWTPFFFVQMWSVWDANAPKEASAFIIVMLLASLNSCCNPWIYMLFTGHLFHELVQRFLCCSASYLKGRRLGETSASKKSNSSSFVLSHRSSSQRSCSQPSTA
# Mus musculus [5] = assay: Effect on social interaction in Oprm1+/+ mouse model of autism spectrum disorders assessed as number of nose contacts at 10 mg/kg, ip pre-treated before open-field test for 10 mins; assay type: ADME, organism-based; conditions: in vivo
# Mus musculus [6] = assay: Improvement in social interaction in Oprm1-/- mouse model of autism spectrum disorders assessed as restoration of mean duration of nose contacts at 10 mg/kg, ip pre-treated before open-field test for 10 mins; assay type: functional, organism-based
# [7] = target: T4, Oxytocin receptor (Homo sapiens); assay: Agonist activity at human OTR receptor expressed in HEK293FT cells assessed as stimulation of calcium release by Aequorin based assay relative to OT; assay type: functional, cell-based
# [8] = Thermodynamic solubility in pH 7.4 buffer; assay type: physicochemical; conditions: read-out: Therm_solubility
# Vasopressin V1b receptor = target: T5, Vasopressin V1b receptor (Homo sapiens, UniProt P47901)
# T5 sequence (P47901 whole entry): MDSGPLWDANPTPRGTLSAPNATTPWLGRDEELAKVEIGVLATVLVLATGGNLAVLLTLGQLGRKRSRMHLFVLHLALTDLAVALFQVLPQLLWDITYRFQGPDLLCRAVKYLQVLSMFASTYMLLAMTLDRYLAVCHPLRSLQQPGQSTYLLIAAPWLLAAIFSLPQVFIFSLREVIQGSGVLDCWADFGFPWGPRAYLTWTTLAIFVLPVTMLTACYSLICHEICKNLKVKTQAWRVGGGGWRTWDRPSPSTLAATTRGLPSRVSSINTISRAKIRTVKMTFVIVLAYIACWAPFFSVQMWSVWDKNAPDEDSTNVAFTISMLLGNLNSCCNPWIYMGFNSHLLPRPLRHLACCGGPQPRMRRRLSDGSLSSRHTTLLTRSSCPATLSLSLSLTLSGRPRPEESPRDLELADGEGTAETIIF
# Description: Agonist activity at human V1b receptor expressed in HEK293FT cells incubated for 30 mins by beta-arrestin recruitment assay
# Vasopressin V1a receptor [9] = target: T3, Vasopressin V1a receptor; assay: Displacement of DY647 from SNAP-tagged V1A receptor (unknown origin) expressed in HEK293 cells by TR-FRET assay; assay type: cell-based
# [10] = target: T4, Oxytocin receptor (Homo sapiens); assay: Agonist activity at human OTR expressed in HEK cells assessed as increase in intracellular calcium flux incubated for 45 mins by Indo1-AM dye based fluorescence assay relative to OT; assay type: functional, cell-based
# Vasopressin V1a receptor [11] = target: T3, Vasopressin V1a receptor; assay: Antagonist activity at human V1a receptor expressed in HEK293FT cells assessed as inhibition of AVP-induced response incubated for 30 mins by beta-arrestin recruitment assay; assay type: functional, cell-based
# Mus musculus [12] = assay: Improvement in social interaction in Oprm1-/- mouse model of autism spectrum disorders assessed as restoration of number of following episodes at 20 mg/kg, ip pre-treated before open-field test for 10 mins; assay type: functional, organism-based
# Vasopressin V1a receptor [13] = target: T3, Vasopressin V1a receptor; assay: Antagonist activity at human V1a receptor expressed in HEK293FT cells assessed as inhibition of AVP-induced calcium release by Aequorin based assay; assay type: functional, cell-based
# Mus musculus [14] = assay: Improvement in social interaction in Oprm1-/- mouse model of autism spectrum disorders assessed as restoration of mean duration of nose contacts at 20 mg/kg, ip pre-treated before open-field test for 10 mins; assay type: functional, organism-based
# Vasopressin V2 receptor [15] = target: T2, Vasopressin V2 receptor; assay: Agonist activity at human V2 receptor expressed in HEK293FT cells incubated for 30 mins by beta-arrestin recruitment assay; assay type: functional, cell-based
# Mus musculus [16] = assay: (§1) Effect on social interaction in Oprm1+/+ mouse model of autism spectrum disorders assessed as grooming episodes occurring after social contact at 10 mg/kg, ip pre-treated before open-field test for 10 mins; assay type: ADME, organism-based; conditions: in vivo
# [17] = Lipophilicity, log D of the compound; assay type: physicochemical; conditions: octanol/water
# Oxytocin receptor [18] = target: T6, Oxytocin receptor (Homo sapiens, UniProt P30559); assay: Agonist activity at human OTR expressed in HEK cells assessed as increase in intracellular calcium flux incubated for 45 mins by Indo1-AM dye based fluorescence assay; assay type: functional, cell-based
# T6 sequence (P30559 whole entry): T4 sequence (whole entry)
# Oxytocin receptor [19] = target: T6, Oxytocin receptor; assay: Agonist activity at human OTR receptor expressed in HEK293FT cells assessed as stimulation of calcium release by Aequorin based assay; assay type: functional, cell-based
# Vasopressin V2 receptor [20] = target: T2, Vasopressin V2 receptor; assay: Agonist activity at human V2 receptor expressed in HEK293FT cells assessed as stimulation of calcium release by Aequorin based assay; assay type: functional, cell-based
# Mus musculus [21] = assay: Improvement in social interaction in Oprm1-/- mouse model of autism spectrum disorders assessed as restoration of time spent in nose contacts at 10 mg/kg, ip pre-treated before open-field test for 10 mins; assay type: functional, organism-based
# Mus musculus [22] = assay: as §1; assay type: ADME, organism-based; conditions: in vivo; remark: listed apart in the source
# Mus musculus [23] = assay: Effect on social interaction in Oprm1+/+ mouse model of autism spectrum disorders assessed as number of following episodes at 10 mg/kg, ip pre-treated before open-field test for 10 mins; assay type: ADME, organism-based; conditions: in vivo
# [24] = target: T4, Oxytocin receptor (Homo sapiens); assay: Agonist activity at human OTR receptor expressed in HEK293FT cells incubated for 30 mins by beta-arrestin recruitment assay relative to OT; assay type: functional, cell-based
compound,measurement,setting,value
Cc1cc(C(=O)N2Cc3cnn(C)c3Nc3ccccc32)ccc1CNC(=O)N1CCC[C@H]1C(=S)N(C)C,EC50,Oxytocin receptor [1],18 nM
same,Ki,Vasopressin V2 receptor [2],1670 nM
same,EC50,Vasopressin V1a receptor [3],Not Active
same,inhibition,[4],5 to 10%
same,Activity,Mus musculus [5],Toxic
same,Activity,Mus musculus [6],Active
same,Emax,[7],96%
same,solubility thermodynamic,[8],680 µM
same,EC50,Vasopressin V1b receptor,Not Active
same,Ki,Vasopressin V1a receptor [9],1250 nM
same,Emax,[10],52%
same,IC50,Vasopressin V1a receptor [11],2200 nM
same,Activity,Mus musculus [12],inactive
same,IC50,Vasopressin V1a receptor [13],5900 nM
same,Activity,Mus musculus [14],inactive
same,EC50,Vasopressin V2 receptor [15],660 nM
same,Activity,Mus musculus [16],Toxic
same,logD,[17],2
same,EC50,Oxytocin receptor [18],55 nM
same,EC50,Oxytocin receptor [19],25 nM
same,EC50,Vasopressin V2 receptor [20],41 nM
same,Activity,Mus musculus [21],Active
same,Activity,Mus musculus [22],Non-Toxic
same,Activity,Mus musculus [23],Toxic
same,Emax,[24],77%
